Reference: article PMC5986738, “Thiazole Amides, A Novel Class of Algaecides against Freshwater Harmful Algae” (Scientific Reports, 2018)
≈ marks a conversion by molar mass, not a printed value.

Experiments:
S. obliqnus = assay: Algicidal activity (growth inhibition, microplate, absorbance 650 nm) against S. obliqnus; format: cell-based; conditions: for IC50 value S. obliqnus: 96-hour IC50, mean ± SD
Method: (§1) According to the method established by Schrader et al.[42], algicidal activity of alkaloid (1) and its amide analogues (7–32), as well as their hydrochloric salts (7S–27S), was evaluated against three typical […] algae, S. obliqnus, M. aeruginosa, and C. Pyrenoidosa at different concentrations. After three algae species were inoculated, the variation of algae density over 7 days were recorded continuously. […] The wavelength at 650 nm was determined as ideal incident wavelength for the measurement of algae density. Three […] algae S. obliqnus, M. aeruginosa, and C. pyrenoidosa were offered by Freshwater algae culture collection of the institute of Hydrobiology (FACHB-collection). Each culture for three species was maintained separately in continuous, steady-state growth microplates, which were placed in a growth chamber held at 28 ± 1 °C and illuminated continuously under fluorescent lights at a photon flux density of […]. Absorbance values of each wells were measured by a Packard model Spectra Count microplate photometer.
(§2) Alkaloid (1) and its analogues (7–32), as well as their hydrochloric salts (7S–27S), were dissolved separately in DMSO to provide stock solution concentrations. Initially, each stock solution was aseptically pipetted into the bottom of separate wells (20 μL per well) in a 96-well microplate and the final test concentrations for each sample were 0, 0.78, 1.56, 3.12, 6.25, 12.5, and 25 μg/mL. Wells of control samples contained only unialgal culture. The solution of CuSO4 and Diuron at the same concentration were chose as the reference sample. Each experiment was performed at least three times. Through measuring the area values under the individual growth curves, the inhibitory rate (%) for the individual tested concentration was calculated according to the following equation (1):1 Ii=(Ac−Ai)/[…]×100% • Ii: inhibitory rate of biomass growth by toxicant concentration i (%) • Ac: average area under the growth curve by control sample • Ai: average area under the growth curve by test concentration i
(§3) Mean values of 96-hour IC50 were determined for each group of plates, and standard deviation were calculated and reported as the mean ± SD.
(§4) The IC50 values of all compounds against three freshwater algae species were calculated using SPSS v19.0, and the algicidal activities of alkaloid (1) and its amide analogues (7–32), as well as the corresponding hydrochloric salts (7S–27S) are listed in Table 1 and 2, respectively.

C. pyrenoidosa = assay: Algicidal activity (growth inhibition, microplate, absorbance 650 nm) against C. pyrenoidosa; format: cell-based, Chlorella pyrenoidosa; conditions: for IC50 value C. pyrenoidosa: 96-hour IC50, mean ± SD
Method: as §1, §2, §3, §4

M. aeruginosa = assay: Algicidal activity (growth inhibition, microplate, absorbance 650 nm) against M. aeruginosa; format: cell-based; conditions: for IC50 value M. aeruginosa: 96-hour IC50, mean ± SD; for growth inhibitory ratio: 3.13 μg/mL
Method: as §1, §2, §3, §4
Currently, M. aeruginosa appears to be the most harmful algae existing in the freshwater bodies in the developing countries. To investigate growth inhibitory potential of this class of thiazole amides on M. aeruginosa, thiazole amide (10) and its hydrochloric acid salt (10S) were subject to further survey for the optimal inhibition time and concentration (Figs 3 and 4). […] The variation of growth inhibitory ratios of compounds (10) and (10S) against M. aeruginosa at the lowest complete inhibition concentration is illustrated in Fig. 4. As observed, for administration of thiazole amide (10), the growth inhibitory ratios after 96 and 120 hours increase gradually to 79% and 92%, respectively. Under the same experimental conditions, growth inhibitory ratios for the salt (10S) are 82% and 88%, respectively.

| Structure (SMILES) | IC50 value S. obliqnus (S. obliqnus) [µg/mL] | IC50 value C. pyrenoidosa (C. pyrenoidosa) [µg/mL] | IC50 value M. aeruginosa (M. aeruginosa) [µg/mL] | growth inhibitory ratio (M. aeruginosa; after 96 hours) [%] | growth inhibitory ratio (M. aeruginosa; after 120 hours) [%] | IC50 (S. obliqnus; 96 h, read-out: IC50 value S. obliqnus) [µg/mL] | IC50 (C. pyrenoidosa; Auxenochlorella pyrenoidosa, 96 h, read-out: IC50 value C. pyrenoidosa) [µg/mL] | IC50 (M. aeruginosa; Microcystis aeruginosa, 96 h, read-out: IC50 value M. aeruginosa) [µg/mL] |
| --- | --- | --- | --- | --- | --- | --- | --- | --- |
| C[C@H](N)c1nc(C(=O)Nc2ccccc2)cs1.Cl [7S] | 0.14 ± 0.06 | 2.54 ± 0.28 | 1.33 ± 0.16 |  |  |  |  |  |
| C[C@H](N)c1nc(C(=O)Nc2ccc(F)cc2)cs1.Cl [8S] | 1.14 ± 0.09 | 2.69 ± 0.23 | 3.00 ± 0.12 |  |  |  |  |  |
| C[C@H](N)c1nc(C(=O)Nc2ccc(Cl)cc2)cs1.Cl [9S] | 4.00 ± 0.34 | 0.40 ± 0.10 | 1.18 ± 0.21 |  |  |  |  |  |
| C[C@H](N)c1nc(C(=O)Nc2ccc(Br)cc2)cs1.Cl [10S] |  |  |  | 82 | 88 |  |  |  |
| Cc1ccc(NC(=O)c2csc([C@H](C)N)n2)cc1.Cl [11S] | 6.83 ± 0.45 | 3.37 ± 0.28 | 4.34 ± 0.36 |  |  |  |  |  |
| COc1ccc(NC(=O)c2csc([C@H](C)N)n2)cc1.Cl [12S] | 3.16 ± 0.29 | 2.88 ± 0.39 | 1.40 ± 0.18 |  |  |  |  |  |
| C[C@H](N)c1nc(C(=O)Nc2cccc(Cl)c2)cs1.Cl [14S] | 2.01 ± 0.19 | 0.66 ± 0.06 | 0.79 ± 0.08 |  |  |  |  |  |
| C[C@H](N)c1nc(C(=O)Nc2cccc(Br)c2)cs1.Cl [15S] | 1.59 ± 0.16 | 2.75 ± 0.30 | 2.96 ± 0.26 |  |  |  |  |  |
| Cc1cccc(NC(=O)c2csc([C@H](C)N)n2)c1.Cl [16S] | 4.07 ± 0.39 | 1.82 ± 0.14 | 1.95 ± 028 |  |  |  |  |  |
| C[C@H](N)c1nc(C(=O)Nc2cccc(C(F)(F)F)c2)cs1.Cl [17S] | 1.59 ± 0.23 | 2.39 ± 0.24 | 3.09 ± 0.42 |  |  |  |  |  |
| C[C@H](N)c1nc(C(=O)Nc2ccccc2F)cs1.Cl [18S] | 1.12 ± 0.09 | 0.27 ± 0.09 | 0.26 ± 0.01 |  |  |  |  |  |
| C[C@H](N)c1nc(C(=O)Nc2ccccc2Cl)cs1.Cl [19S] | 0.14 ± 0.02 | 2.50 ± 0.16 | 3.07 ± 0.34 |  |  |  |  |  |
| C[C@H](N)c1nc(C(=O)Nc2ccccc2Br)cs1.Cl [20S] | 0.68 ± 0.06 | 0.41 ± 0.04 | 1.23 ± 0.12 |  |  |  |  |  |
| Cc1ccccc1NC(=O)c1csc([C@H](C)N)n1.Cl [21S] | 13.63 ± 1.20 | 5.15 ± 0.56 | 4.93 ± 045 |  |  |  |  |  |
| COc1ccccc1NC(=O)c1csc([C@H](C)N)n1.Cl [22S] | 1.74 ± 0.24 | 0.35 ± 0.02 | 1.12 ± 0.16 |  |  |  |  |  |
| C[C@H](N)c1nc(C(=O)Nc2ccc(OC(F)(F)F)cc2)cs1.Cl [23S] | 4.68 ± 0.38 | 0.66 ± 0.03 | 4.45 ± 0.58 |  |  |  |  |  |
| C[C@H](N)c1nc(C(=O)Nc2ccc(Cl)c(Cl)c2)cs1.Cl [24S] | 5.59 ± 0.78 | 3.42 ± 0.32 | 5.18 ± 0.66 |  |  |  |  |  |
| Cc1cc(NC(=O)c2csc([C@H](C)N)n2)ccc1F.Cl [25S] | 16.62 ± 1.48 | 1.59 ± 0.19 | 1.79 ± 0.22 |  |  |  |  |  |
| CCOC(=O)c1ccc(NC(=O)c2csc([C@H](C)N)n2)cc1.Cl [26S] | 10.60 ± 1.18 | 2.38 ± 0.32 | 2.46 ± 0.23 |  |  |  |  |  |
| O=S(=O)([O-])[O-].[Cu+2] [CuSO4, reference compound] | 0.99 ± 0.06 | 1.56 ± 0.09 | 1.29 ± 0.02 |  |  |  |  |  |
| CN(C)C(=O)Nc1ccc(Cl)c(Cl)c1 [Diuron, reference compound] |  |  |  |  |  | 0.79 ± 0.08 (≈ 3.39 µM) | 1.42 ± 0.27 (≈ 6.09 µM) | 1.35 ± 0.15 (≈ 5.79 µM) |
